Laboratory results published in patent publication US12447238B2, “Antimicrobial tubular conduits” (SANIDRINK S.R.L., priority 2020, dated 2025).
Values after ≈ are worked out from the molar mass of the structure shown. Peptide text beside a SMILES is read from it.

How the values were obtained:
Listeria = assay: Bactericidal activity of AMP peptides at 15 μM (CFU vs control), Listeria; type: cell-based; details: peptide 15 μM
Experimental: (§1) The bactericidal activity of further AMP peptides used in the invention, in particular of the RiLK31 peptide (RLRWVKIWKK, SEQ ID NO:31) and the RiLK3 peptide (RLRWVRIWRR, SEQ ID NO:3), was tested. The bactericidal activity was expressed as a percentage of viable cells in terms of CFU (Colony Forming Units) in a bacterial sample exposed to each peptide compared to those in a control bacterial sample in the absence of the peptide. All tests were carried out with the same peptide concentration, corresponding to 15 μM.

Staphylococcus = assay: Bactericidal activity of AMP peptides at 15 μM (CFU vs control), Staphylococcus; type: cell-based; details: peptide 15 μM
Experimental: as §1

E. coli = assay: Bactericidal activity of AMP peptides at 15 μM (CFU vs control), E. coli; type: cell-based; details: peptide 15 μM
Experimental: as §1

Salmonella = assay: Bactericidal activity of AMP peptides at 15 μM (CFU vs control), Salmonella; type: cell-based; details: peptide 15 μM
Experimental: as §1

E. coli (ATCC) [1] = assay: Minimum Bactericidal Concentration (MBC) against E. coli; type: cell-based, Escherichia coli; details: 99.9% inhibition of bacterial growth on plates
Experimental: (§2) The evaluation of the Minimum Bactericidal Concentration (MBC), i.e., the lowest concentration of antimicrobial agent capable of 99.9% inhibition of bacterial growth on plates, was carried out as described in Bilikova et al, (2015, Peptides 68:190-196).

E. coli (ATCC) [2] = type: cell-based, Escherichia coli; details: 6 h
Experimental: (§3) The bactericidal activity of RiLK1 peptides was assessed against both Gram positive (Listeria monocytogenes LM2 and Staphylococcus aureus) and Gram negative (Salmonella typhimurium and Escherichia coli) pathogenic bacteria.
(§4) The assessment of the concentration of RiLK1 peptides capable of inhibiting 50% of bacterial growth (IC50) was performed by the broth microdilution assay as described in Wang HX and Ng TB (2003, Peptides 24:969-972).
(§5) Standard deviations were obtained from triplicate experiments for each peptide dilution, and the IC50s were determined using GraphPad Prism version 6.00 (Graph-Pad Software, La Jolla California USA).
(§6) All bactericidal activity assays were performed using 2-3 log CFUs (Colony Forming Units), which represents a realistic approximation of the contamination levels that may be contained in the tubular conduits for food or medical use.
(§7) All experimental conditions investigated used the plate count method to estimate the bactericidal activity of the peptides. Specifically, the numbers of colonies grown on agar plates seeded with the bacterial suspensions in the absence or presence of the individual peptide dilutions were counted and compared. Standard deviations were determined using statistical software.
A control stock suspension was prepared in which 10^3 CFUs of E. coli were inoculated in 10 ml of BPW (Oxoid, Basingstoke, UK). […]

[3] = system: L. monocytogenes (LM2) (field strain); assay: Minimum Bactericidal Concentration (MBC) against L. monocytogenes; type: cell-based, Listeria monocytogenes; details: 99.9% inhibition of bacterial growth on plates
Experimental: as §2

[4] = system: Candida albicans (ATCC 14053); type: cell-based
Experimental: The inhibitory activity of the RiLK1 peptide was determined against the yeast Candida albicans. A stock culture was prepared in which 10^5 CFUs of C. albicans were inoculated in 10 ml of buffered peptone water. A reference strain (ATCC 14053) was used for this species. The culture was incubated for 6 h at 37° C. with the RiLK1 peptide at 25 μM concentrations. At the same time, control samples were incubated without adding the peptide. 100 μl of the samples thus prepared were seeded on DG18 plates (Dichloran 18% Glycerol Agar—ISO 21527-2) and incubated at 25° C. for 7 days.
(§8) All experimental conditions investigated used the plate count method to estimate the antimycotic activity of the peptide. Specifically, the numbers of colonies grown on agar plates seeded with the cultures in the absence or presence of the individual peptide dilutions were counted and compared. The standard deviations of the triplicate incubations of each plate were determined using statistical software. The evaluation of the Minimum Fungicidal Concentration (MFC), i.e., the lowest concentration of antifungal agent capable of 99.9% inhibition of fungal growth on plates, was carried out as described in Bilikova et al, (2015, Peptides 68:190-196).

[5] = system: L. monocytogenes (LM2) (field strain); assay: IC50 by broth microdilution and plate count against L. monocytogenes; type: cell-based, Listeria monocytogenes; details: 6 hours at 37° C. in Fraser Broth, plate count
Experimental: as §3, §4, §5, §6
as §7, with “software. […]” for “software.”

[6] = system: Aspergillus brasiliensis (ATCC 9341); type: cell-based
Experimental: The antifungal activity of the RiLK1 peptide was determined against Aspergillus brasiliensis. For this purpose, a stock culture was prepared in which 10^5 CFUs of A. brasiliensis were inoculated in 10 ml of buffered peptone water. A reference strain (ATCC 9341) was used for this fungal species. The culture was incubated for 6 h at 37° C. with the RiLK1 peptide at 25 μM concentrations.
At the same time, control samples were incubated without adding the peptide. 100 μl of the samples thus prepared were seeded on DG18 plates (Dichloran 18% Glycerol Agar—ISO 21527-2) and incubated at 25° C. for 7 days.
as §8, with “fungicidal” for “antimycotic”, “fungal suspensions” for “cultures”

In the case of RLRWVKIWKK (AMP) [RiLK31], the “bactericidal activity expressed as a percentage of viable cells (CFU) vs control” value (Listeria) is reported as 98.8%, the “bactericidal activity expressed as a percentage of viable cells (CFU) vs control” value (Staphylococcus) is reported as 83% and the “bactericidal activity expressed as a percentage of viable cells (CFU) vs control” value (E. coli) is reported as 100%. For the same compound, the “bactericidal activity expressed as a percentage of viable cells (CFU) vs control” value (Salmonella) was 100%.
For `CC[C@H](C)[C@H](NC(=O)[C@H](CCCNC(=N)N)NC(=O)[C@@H](NC(=O)[C@H](Cc1c[nH]c2ccccc12)NC(=O)[C@H](CCCCN)NC(=O)[C@H](CC(C)C)NC(=O)[C@@H](N)CCCNC(=N)N)C(C)C)C(=O)N[C@@H](Cc1c[nH]c2ccccc12)C(=O)N[C@@H](CCCNC(=N)N)C(=O)N[C@@H](CCCNC(=N)N)C(N)=O` [RiLK1, RLKWVRIWRR] (H-RLKWVRIWRR-NH2; N-terminus assumed), the MBC (E. coli (ATCC) [1]) was 2 µM (≈ 2.94 µg/mL), the “bactericidal activity expressed as a percentage of viable cells (CFU) vs control” value (Listeria) was 99.5% and the IC50 (E. coli (ATCC) [2]) was 1200 nM. The “bactericidal activity expressed as a percentage of viable cells (CFU) vs control” value (Staphylococcus) was 96.9%, the MBC [3] was 2 µM (≈ 2.94 µg/mL) and the “bactericidal activity expressed as a percentage of viable cells (CFU) vs control” value (E. coli) was 100%. The MFC ([4]; ATCC 14053, 6 h) was “less than or equal to 25 μM”, the “post-treatment decrease in the fungal load” value ([4]; C. albicans, 25 μM peptide, 6 h at 37° C.) was 5 Log and the “Drop Log CFU/ml” value ([4]; C. albicans, 10^5 CFUs, 25 μM peptide, 6 h at 37° C.) was 5 Log CFU/ml. For the same compound, the “bactericidal activity expressed as a percentage of viable cells (CFU) vs control” value (Salmonella) was 100%, the IC50 [5] was 460 nM and the “post-treatment decrease in the fungal load” value ([6]; A. brasiliensis, 25 μM peptide, 6 h at 37° C.) was 5 Log. The “Drop Log CFU/ml” value ([6]; A. brasiliensis, 10^5 CFUs, 25 μM peptide, 6 h at 37° C.) was 5 Log CFU/ml and the MFC ([6]; ATCC 9341, 6 h) was “less than or equal to 25 μM”.
RLRWVRIWRR (AMP) [RiLK3] was tested, and the “bactericidal activity expressed as a percentage of viable cells (CFU) vs control” value (Listeria) was 99%, the “bactericidal activity expressed as a percentage of viable cells (CFU) vs control” value (Staphylococcus) was 96% and the “bactericidal activity expressed as a percentage of viable cells (CFU) vs control” value (E. coli) was 100%. For the same compound, the “bactericidal activity expressed as a percentage of viable cells (CFU) vs control” value (Salmonella) was 100%.
